The source of these data is paper PMC12250785, “Synthesis of Novel 7-Phenyl-2,3-Dihydropyrrolo[2,1-b]Quinazolin-9(1H)-ones as Cholinesterase Inhibitors Targeting Alzheimer’s Disease Through Suzuki–Miyaura Cross-Coupling Reaction” (Molecules, 2025).

One series addresses AChE (E.C. 3.1.1.7) (Electrophorus electricus, UniProt O42275). Put plainly: biochemical. As to conditions: for IC50: AChE from electric eel, Ellman method, means ± SD of triplicate independent experiments; for Selectivity (BChE/AChE): BChE IC50/AChE IC50. How it is done: The results are presented as IC50 values.
The total volume of the reaction was 200 μL, consisting of 2 μL of sample, 138 μL of Tris-HCl buffer solution containing acetylcholinesterase (final concentration of 0.03 U/mL), and a control consisting of Tris-HCl buffer solution without the enzyme. The reaction was incubated at room temperature for 10 min. Following this, 20 μL of […] (5 mM) was added, and the reaction was conducted at 37 °C for an additional 10 min.
For orientation: Ellman's reagent forms a yellow product with free thiols.

A further series deals with BChE (E.C. 3.1.1.8) (Equus caballus, UniProt P81908). Put plainly: biochemical. As to conditions: BChE from horse serum; Ellman method; means ± SD of triplicate independent experiments.
Series [1] is described as follows: Solubility in common organic solvents. It counts as physicochemical.

As a reminder, the IC50 is the concentration at which inhibition is half-maximal.

Chain of AChE (E.C. 3.1.1.7) (O42275 24-633): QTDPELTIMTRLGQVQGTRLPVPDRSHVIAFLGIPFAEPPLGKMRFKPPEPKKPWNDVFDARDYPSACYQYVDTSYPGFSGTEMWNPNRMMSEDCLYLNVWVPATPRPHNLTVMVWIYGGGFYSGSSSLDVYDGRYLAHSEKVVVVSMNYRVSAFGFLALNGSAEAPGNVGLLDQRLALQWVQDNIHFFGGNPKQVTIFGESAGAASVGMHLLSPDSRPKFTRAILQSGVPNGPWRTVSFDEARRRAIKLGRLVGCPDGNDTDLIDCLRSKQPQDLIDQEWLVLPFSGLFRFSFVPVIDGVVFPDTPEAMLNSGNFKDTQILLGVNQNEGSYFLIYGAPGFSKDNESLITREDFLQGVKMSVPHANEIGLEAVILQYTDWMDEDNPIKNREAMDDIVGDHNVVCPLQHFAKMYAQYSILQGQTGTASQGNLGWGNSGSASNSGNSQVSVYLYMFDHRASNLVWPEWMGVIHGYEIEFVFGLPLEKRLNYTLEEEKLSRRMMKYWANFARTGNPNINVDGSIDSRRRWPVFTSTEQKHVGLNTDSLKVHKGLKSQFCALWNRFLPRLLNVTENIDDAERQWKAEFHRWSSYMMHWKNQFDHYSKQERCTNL
Chain of BChE (E.C. 3.1.1.8) (P81908 whole entry): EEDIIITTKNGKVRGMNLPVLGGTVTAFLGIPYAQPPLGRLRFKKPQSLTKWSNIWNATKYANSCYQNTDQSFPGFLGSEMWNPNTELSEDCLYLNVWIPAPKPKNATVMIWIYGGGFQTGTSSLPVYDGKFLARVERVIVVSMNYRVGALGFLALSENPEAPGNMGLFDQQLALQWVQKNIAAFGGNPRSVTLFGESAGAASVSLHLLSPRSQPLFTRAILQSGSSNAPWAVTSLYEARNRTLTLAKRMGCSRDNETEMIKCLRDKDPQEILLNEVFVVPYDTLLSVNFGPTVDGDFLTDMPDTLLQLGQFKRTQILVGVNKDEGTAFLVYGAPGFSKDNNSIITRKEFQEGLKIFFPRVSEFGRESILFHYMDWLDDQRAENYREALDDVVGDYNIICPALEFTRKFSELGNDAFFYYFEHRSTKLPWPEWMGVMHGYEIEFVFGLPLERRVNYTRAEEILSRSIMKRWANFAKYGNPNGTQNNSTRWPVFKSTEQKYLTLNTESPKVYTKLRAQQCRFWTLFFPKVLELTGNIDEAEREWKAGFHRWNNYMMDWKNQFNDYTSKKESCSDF

`O=c1c2cc(-c3ccc(Cl)cc3)ccc2nc2n1CCC2` [3a, 7-(4-Chlorophenyl)-2,3-dihydropyrrolo[2,1-b]quinazolin-9(1H)-one]: the IC50 against AChE (E.C. 3.1.1.7) and against BChE (E.C. 3.1.1.8) was over 50 µM in each case.

`O=c1c2cc(-c3ccc(F)cc3)ccc2nc2n1CCC2` [3b, 7-(4-Fluorophenyl)-2,3-dihydropyrrolo[2,1-b]quinazolin-9(1H)-one]: the IC50 against AChE (E.C. 3.1.1.7) was 34.8 ± 1.21 µM; against BChE (E.C. 3.1.1.8) it was 15.5 ± 0.41 µM. Besides, the “Selectivity (BChE/AChE)” value on AChE (E.C. 3.1.1.7) came to 0.5.

Turning to `O=c1c2cc(-c3ccc(C(F)(F)F)cc3)ccc2nc2n1CCC2` [3c, 7-(4-(Trifluoromethyl)phenyl)-2,3-dihydropyrrolo[2,1-b]quinazolin-9(1H)-one], the IC50 against AChE (E.C. 3.1.1.7) and against BChE (E.C. 3.1.1.8) was over 50 µM throughout.

With `COc1ccc(-c2ccc3nc4n(c(=O)c3c2)CCC4)cc1` [3d, 7-(4-Methoxyphenyl)-2,3-dihydropyrrolo[2,1-b]quinazolin-9(1H)-one], the IC50 against AChE (E.C. 3.1.1.7) was 16.2 ± 0.39 µM; against BChE (E.C. 3.1.1.8), over 50 µM.

On to `CC(C)(C)c1ccc(-c2ccc3nc4n(c(=O)c3c2)CCC4)cc1` [3e, 7-(4-(tert-Butyl)phenyl)-2,3-dihydropyrrolo[2,1-b]quinazolin-9(1H)-one], for which the 50% inhibitory concentration (IC50) against AChE (E.C. 3.1.1.7) and against BChE (E.C. 3.1.1.8) was over 50 µM each time.

Consider `Cc1cccc(-c2ccc3nc4n(c(=O)c3c2)CCC4)c1` [3f, 7-(m-Tolyl)-2,3-dihydropyrrolo[2,1-b]quinazolin-9(1H)-one], for which, at AChE (E.C. 3.1.1.7), the midpoint of inhibition, the IC50, lay at 28.7 ± 0.69 µM and the “Selectivity (BChE/AChE)” value turned out to be 0.8. The same compound had an IC50 at BChE (E.C. 3.1.1.8) of 22.8 ± 0.49 µM.

As to `O=c1c2cc(-c3cccc(Cl)c3)ccc2nc2n1CCC2` [3g, 7-(3-Chlorophenyl)-2,3-dihydropyrrolo[2,1-b]quinazolin-9(1H)-one], the half-inhibitory concentration (IC50) is 27.9 ± 0.72 µM against AChE (E.C. 3.1.1.7) and 22.2 ± 0.48 µM on BChE (E.C. 3.1.1.8). In addition, the “Selectivity (BChE/AChE)” value at AChE (E.C. 3.1.1.7) was 0.8.

On to `COc1cccc(-c2ccc3nc4n(c(=O)c3c2)CCC4)c1` [3h, 7-(3-Methoxyphenyl)-2,3-dihydropyrrolo[2,1-b]quinazolin-9(1H)-one], for which the IC50 was 17.7 ± 0.84 µM against AChE (E.C. 3.1.1.7) and 41.8 ± 1.28 µM at BChE (E.C. 3.1.1.8). The “Selectivity (BChE/AChE)” value at AChE (E.C. 3.1.1.7) was 2.4.

As for `CC(=O)c1cccc(-c2ccc3nc4n(c(=O)c3c2)CCC4)c1` [3i, 7-(3-Acetylphenyl)-2,3-dihydropyrrolo[2,1-b]quinazolin-9(1H)-one], the values for the IC50 against AChE (E.C. 3.1.1.7) and against BChE (E.C. 3.1.1.8) were 33.2 ± 1.01 µM and over 50 µM, respectively.

Consider `Cc1ccccc1-c1ccc2nc3n(c(=O)c2c1)CCC3` [3j, 7-(o-Tolyl)-2,3-dihydropyrrolo[2,1-b]quinazolin-9(1H)-one], for which the results for the IC50 against AChE (E.C. 3.1.1.7) and on BChE (E.C. 3.1.1.8) were over 50 µM and 11.1 ± 0.37 µM, respectively.

Regarding `O=c1c2cc(-c3ccc(F)c(Cl)c3)ccc2nc2n1CCC2` [3k, 7-(3-Chloro-4-fluorophenyl)-2,3-dihydropyrrolo[2,1-b]quinazolin-9(1H)-one], at AChE (E.C. 3.1.1.7), the IC50 came to 6.08 ± 0.26 µM and the “Selectivity (BChE/AChE)” value stood at 4.8. On BChE (E.C. 3.1.1.8), this compound showed a half-inhibitory concentration (IC50) of 29 ± 0.74 µM.

Regarding `COc1ccc(Cl)cc1-c1ccc2nc3n(c(=O)c2c1)CCC3` [3l, 7-(5-Chloro-2-methoxyphenyl)-2,3-dihydropyrrolo[2,1-b]quinazolin-9(1H)-one], at AChE (E.C. 3.1.1.7), half-maximal inhibition (IC50) required 14.7 ± 0.48 µM and the “Selectivity (BChE/AChE)” value is 2.0. The same compound showed an IC50 against BChE (E.C. 3.1.1.8) of 28.5 ± 0.46 µM.

Consider `O=c1c2cc(-c3cccc4ccccc34)ccc2nc2n1CCC2` [3m, 7-(Naphthalen-1-yl)-2,3-dihydropyrrolo[2,1-b]quinazolin-9(1H)-one], for which the results for the IC50 against AChE (E.C. 3.1.1.7) and against BChE (E.C. 3.1.1.8) were over 50 µM and 32 ± 0.72 µM, respectively.

For `O=c1c2cc(-c3ccccc3)ccc2nc2n1CCC2` [3n, 7-Phenyl-2,3-dihydropyrrolo[2,1-b]quinazolin-9(1H)-one], on AChE (E.C. 3.1.1.7), the IC50 was determined as 35.9 ± 1.03 µM and the “Selectivity (BChE/AChE)” value stood at 0.64. Further, the IC50 on BChE (E.C. 3.1.1.8) worked out at 22.9 ± 0.57 µM.

As for `O=c1c2cc(-c3ccc(Cl)cc3)ccc2nc2n1CCCC2` [4a, 2-(4-Chlorophenyl)-6,7,8,9-tetrahydro-11H-pyrido[2,1-b]quinazolin-11-one], the IC50 against AChE (E.C. 3.1.1.7) and on BChE (E.C. 3.1.1.8) was over 50 µM throughout.

As for `O=c1c2cc(-c3ccc(F)cc3)ccc2nc2n1CCCC2` [4b, 2-(4-Fluorophenyl)-6,7,8,9-tetrahydro-11H-pyrido[2,1-b]quinazolin-11-one], the concentration for half-maximal inhibition (IC50) on AChE (E.C. 3.1.1.7) was 34.6 ± 1.27 µM; at BChE (E.C. 3.1.1.8) it was over 50 µM.

In the case of `O=c1c2cc(-c3ccc(C(F)(F)F)cc3)ccc2nc2n1CCCC2` [4c, 2-(4-(Trifluoromethyl)phenyl)-6,7,8,9-tetrahydro-11H-pyrido[2,1-b]quinazolin-11-one], the IC50 against AChE (E.C. 3.1.1.7) and at BChE (E.C. 3.1.1.8) was over 50 µM in each case.

For `COc1ccc(-c2ccc3nc4n(c(=O)c3c2)CCCC4)cc1` [4d, 2-(4-Methoxyphenyl)-6,7,8,9-tetrahydro-11H-pyrido[2,1-b]quinazolin-11-one], the IC50 against AChE (E.C. 3.1.1.7) is 33.2 ± 1.08 µM; at BChE (E.C. 3.1.1.8), over 50 µM.

Consider `CC(C)(C)c1ccc(-c2ccc3nc4n(c(=O)c3c2)CCCC4)cc1` [4e, 2-(4-(tert-Butyl)phenyl)-6,7,8,9-tetrahydro-11H-pyrido[2,1-b]quinazolin-11-one], for which the IC50 on AChE (E.C. 3.1.1.7) and against BChE (E.C. 3.1.1.8) was over 50 µM throughout.

Regarding `Cc1cccc(-c2ccc3nc4n(c(=O)c3c2)CCCC4)c1` [4f, 2-(m-Tolyl)-6,7,8,9-tetrahydro-11H-pyrido[2,1-b]quinazolin-11-one], on AChE (E.C. 3.1.1.7), it took 6.39 ± 0.31 µM to reach half-maximal inhibition (IC50) and the “Selectivity (BChE/AChE)” value is 1.7. In addition, the “solubility in common organic solvents” value in series [1] is “poor solubility”. The IC50 against BChE (E.C. 3.1.1.8) is 10.7 ± 0.64 µM.

For `O=c1c2cc(-c3cccc(Cl)c3)ccc2nc2n1CCCC2` [4g, 2-(3-Chlorophenyl)-6,7,8,9-tetrahydro-11H-pyrido[2,1-b]quinazolin-11-one], the IC50 against AChE (E.C. 3.1.1.7) was 21.3 ± 0.88 µM; against BChE (E.C. 3.1.1.8), 22.9 ± 0.76 µM. For the same compound, the “Selectivity (BChE/AChE)” value at AChE (E.C. 3.1.1.7) is listed as 1.1.

On to `COc1cccc(-c2ccc3nc4n(c(=O)c3c2)CCCC4)c1` [4h, 2-(3-Methoxyphenyl)-6,7,8,9-tetrahydro-11H-pyrido[2,1-b]quinazolin-11-one], for which, at AChE (E.C. 3.1.1.7), the IC50 worked out at 42.7 ± 1.8 µM and the “Selectivity (BChE/AChE)” value is 1. At BChE (E.C. 3.1.1.8), this compound yielded a 50% inhibitory concentration (IC50) of 42.3 ± 1.23 µM.

For `CC(=O)c1cccc(-c2ccc3nc4n(c(=O)c3c2)CCCC4)c1` [4i, 2-(3-Acetylphenyl)-6,7,8,9-tetrahydro-11H-pyrido[2,1-b]quinazolin-11-one], the results for the IC50 at AChE (E.C. 3.1.1.7) and at BChE (E.C. 3.1.1.8) were 11.1 ± 0.73 µM and over 50 µM, respectively.

With `Cc1ccccc1-c1ccc2nc3n(c(=O)c2c1)CCCC3` [4j, 2-(o-Tolyl)-6,7,8,9-tetrahydro-11H-pyrido[2,1-b]quinazolin-11-one], the IC50 at AChE (E.C. 3.1.1.7) and against BChE (E.C. 3.1.1.8) was over 50 µM each time.

For the compound `O=c1c2cc(-c3ccc(F)c(Cl)c3)ccc2nc2n1CCCC2` [4k, 2-(3-Chloro-4-fluorophenyl)-6,7,8,9-tetrahydro-11H-pyrido[2,1-b]quinazolin-11-one], the half-maximal inhibitory concentration (IC50) at AChE (E.C. 3.1.1.7) and against BChE (E.C. 3.1.1.8) was over 50 µM each time.

Regarding `COc1ccc(Cl)cc1-c1ccc2nc3n(c(=O)c2c1)CCCC3` [4l, 2-(5-Chloro-2-methoxyphenyl)-6,7,8,9-tetrahydro-11H-pyrido[2,1-b]quinazolin-11-one], the concentration for half-maximal inhibition (IC50) is over 50 µM at AChE (E.C. 3.1.1.7) and 46.6 ± 1.45 µM against BChE (E.C. 3.1.1.8).

Turning to `O=c1c2cc(-c3cccc4ccccc34)ccc2nc2n1CCCC2` [4m, 2-(Naphthalen-1-yl)-6,7,8,9-tetrahydro-11H-pyrido[2,1-b]quinazolin-11-one], the IC50 against AChE (E.C. 3.1.1.7) and against BChE (E.C. 3.1.1.8) was over 50 µM throughout.

For the compound `O=c1c2cc(-c3ccccc3C(F)(F)F)ccc2nc2n1CCCC2` [4n, 2-(2-(Trifluoromethyl)phenyl)-6,7,8,9-tetrahydro-11H-pyrido[2,1-b]quinazolin-11-one], the half-inhibitory concentration (IC50) on AChE (E.C. 3.1.1.7) is over 50 µM; on BChE (E.C. 3.1.1.8), 43.2 ± 1.27 µM.
